Measured values from ChEMBL document CHEMBL1201862, “PubChem BioAssay data set” (2004).
Active and inactive are the calls of the source.

What was measured:
[1] = biological target: Disintegrin and metalloproteinase domain-containing protein 17 (Homo sapiens, UniProt P78536); assay: ADAM17 protease inhibitors, dose response, counter-screen for ADAM10 exosite inhibitor project, biochemical, quenched FRET substrate (AID 743253)
[2] = ADAM10 inhibitors, peptide cleavage, dose response, biochemical, QFRET (AID 743254);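 note: ADAM10 enzyme with the DM2 quenched FRET peptide as substrate; EDANS fluorescence gain as the protease cuts the substrate; inhibitor potency against ADAM10 proteolytic activity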
[3] = biological target: 26S proteasome non-ATPase regulatory subunit 14 (Homo sapiens, UniProt O00487); assay: inhibition of proteasome subunit RPN11 – biochemical, fluorescence polarization, uHTS hits, confirmation (AID 602368); type: functional
Chain of 26S proteasome non-ATPase regulatory subunit 14 (O00487 whole entry): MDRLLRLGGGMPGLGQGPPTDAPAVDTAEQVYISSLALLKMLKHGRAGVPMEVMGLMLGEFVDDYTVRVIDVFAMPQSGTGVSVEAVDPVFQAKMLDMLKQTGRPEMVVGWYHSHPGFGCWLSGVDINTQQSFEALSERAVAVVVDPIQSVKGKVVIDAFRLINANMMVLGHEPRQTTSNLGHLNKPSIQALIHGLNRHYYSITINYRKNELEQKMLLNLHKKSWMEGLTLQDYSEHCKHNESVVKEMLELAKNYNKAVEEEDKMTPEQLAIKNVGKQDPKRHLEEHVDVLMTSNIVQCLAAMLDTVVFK

[4] = biological target: 72 kDa type IV collagenase (Homo sapiens, UniProt P08253); assay: Dose Response validation of uHTS RPN11 inhibitor hits using a MMP-2 Fluorescence assay.; type: functional
Chain of 72 kDa type IV collagenase (P08253 whole entry): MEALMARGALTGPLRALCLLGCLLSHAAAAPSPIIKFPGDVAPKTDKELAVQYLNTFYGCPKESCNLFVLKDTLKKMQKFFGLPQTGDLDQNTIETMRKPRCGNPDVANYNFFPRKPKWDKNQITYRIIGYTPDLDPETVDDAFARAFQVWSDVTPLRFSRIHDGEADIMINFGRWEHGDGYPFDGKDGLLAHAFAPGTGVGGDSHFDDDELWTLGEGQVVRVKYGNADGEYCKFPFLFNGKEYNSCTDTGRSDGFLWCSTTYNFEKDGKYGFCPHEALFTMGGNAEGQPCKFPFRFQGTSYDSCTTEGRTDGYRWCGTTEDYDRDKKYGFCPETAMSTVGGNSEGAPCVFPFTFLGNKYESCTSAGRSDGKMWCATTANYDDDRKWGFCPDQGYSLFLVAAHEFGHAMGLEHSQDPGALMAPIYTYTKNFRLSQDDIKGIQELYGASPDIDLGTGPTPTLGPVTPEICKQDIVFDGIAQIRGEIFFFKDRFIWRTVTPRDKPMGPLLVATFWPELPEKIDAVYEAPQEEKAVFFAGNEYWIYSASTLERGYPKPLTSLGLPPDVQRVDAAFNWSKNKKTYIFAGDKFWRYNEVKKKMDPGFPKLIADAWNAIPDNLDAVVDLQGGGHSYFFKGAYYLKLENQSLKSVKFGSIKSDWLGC

Prothrombin = Prothrombin (Bos taurus, UniProt P00735); assay: thrombin inhibition, dose response, biochemical, fluorescence polarization, uHTS hits (AID 602369); type: functional
[5] = Luminescence Cell-Based Dose Confirmation HTS to Identify Activators of 5'UTR Stem-Loop Driven Alpha-Synuclein mRNA Translation in H4 Neuroglioblastoma Cells. [Related pubchem assays: 1829 (Project Summary), 1814 (Primary HTS)]; type: functional
H4 = assay: Luminescence Cell-Based Dose Response HTS to Identify Activators of 5'UTR Stem-Loop Driven Prion Protein mRNA Translation in H4 Neuroglioblastoma Cells. [Related pubchem assays: 1829 (Project Summary), 1814 (Primary HTS)]; type: functional; conditions: Homo sapiens
[6] = Luminescence Cell-Based Dose Response HTS to Identify Activators of Luciferase Translation or Activity in H4 […] Cells. [Related pubchem assays: 1829 (Project Summary), 1814 (Primary HTS)]; type: functional
Cytochrome P450 2D6 = Cytochrome P450 2D6 (Homo sapiens, UniProt P10635);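 note: CYP2D6 member of a cytochrome P450 panel assay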
Chain of Cytochrome P450 2D6 (P10635 whole entry): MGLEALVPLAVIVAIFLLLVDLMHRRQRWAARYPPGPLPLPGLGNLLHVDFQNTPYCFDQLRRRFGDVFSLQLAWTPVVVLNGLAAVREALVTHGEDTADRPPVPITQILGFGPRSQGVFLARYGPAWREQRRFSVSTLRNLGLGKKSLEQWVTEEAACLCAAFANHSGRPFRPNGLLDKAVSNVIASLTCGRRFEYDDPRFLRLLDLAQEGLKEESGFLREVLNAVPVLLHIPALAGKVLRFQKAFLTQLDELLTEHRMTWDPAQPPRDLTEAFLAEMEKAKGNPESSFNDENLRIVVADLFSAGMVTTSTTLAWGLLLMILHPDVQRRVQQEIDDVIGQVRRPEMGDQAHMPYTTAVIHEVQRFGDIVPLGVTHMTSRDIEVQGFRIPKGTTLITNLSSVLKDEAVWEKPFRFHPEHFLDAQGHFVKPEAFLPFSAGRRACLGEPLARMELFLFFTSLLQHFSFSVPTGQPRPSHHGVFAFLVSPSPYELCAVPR

Streptokinase A = biological target: T1, Streptokinase A (Streptococcus pyogenes serotype M1, UniProt P10520); assay: S. pyogenes streptokinase expression inhibitors, potency, dose response, plasminogen activation absorbance, OD405 (AID 1914); type: functional, Streptococcus pyogenes M1 GAS;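 note: secreted streptokinase activity via plasminogen activation per viability signal from cell pellet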
T1 sequence (P10520 whole entry): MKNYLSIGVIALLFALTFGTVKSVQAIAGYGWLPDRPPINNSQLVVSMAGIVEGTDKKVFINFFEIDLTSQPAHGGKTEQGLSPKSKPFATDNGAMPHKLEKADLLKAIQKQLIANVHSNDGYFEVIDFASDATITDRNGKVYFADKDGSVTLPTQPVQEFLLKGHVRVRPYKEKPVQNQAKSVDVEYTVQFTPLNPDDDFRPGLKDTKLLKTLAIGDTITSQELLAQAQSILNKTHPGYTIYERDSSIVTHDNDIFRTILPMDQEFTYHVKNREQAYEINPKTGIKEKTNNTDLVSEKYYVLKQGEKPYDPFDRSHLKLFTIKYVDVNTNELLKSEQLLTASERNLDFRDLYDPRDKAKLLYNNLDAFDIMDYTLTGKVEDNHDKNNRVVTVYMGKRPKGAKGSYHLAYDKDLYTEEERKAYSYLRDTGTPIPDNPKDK

[7] = system: Streptococcus sp. 'group A'; assay: growth inhibition of control SK(-) GAS strain, dose response, counter-screen for streptokinase expression inhibitor project, luminescence, kanamycin, BacTiterGlo, confirmation (AID 1900); type: functional, organism-based
Streptococcus = assay: Group A Streptococcus viability loss, dose response, counter-screen for streptokinase expression inhibitor project, luminescence, BacTiterGlo (AID 1915); type: functional, organism-based;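 note: potency for reduction of bacterial viability or growth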
[8] = biological target: T2, Rac GTPase-activating protein 1 (Homo sapiens, UniProt Q9H0H5); assay: MgcRacGAP GTPase-activating activity inhibitors, confirmation, biochemical, ADP Hunter fluorescence, primary and confirmatory (AID 624330); type: functional
T2 sequence (Q9H0H5 whole entry): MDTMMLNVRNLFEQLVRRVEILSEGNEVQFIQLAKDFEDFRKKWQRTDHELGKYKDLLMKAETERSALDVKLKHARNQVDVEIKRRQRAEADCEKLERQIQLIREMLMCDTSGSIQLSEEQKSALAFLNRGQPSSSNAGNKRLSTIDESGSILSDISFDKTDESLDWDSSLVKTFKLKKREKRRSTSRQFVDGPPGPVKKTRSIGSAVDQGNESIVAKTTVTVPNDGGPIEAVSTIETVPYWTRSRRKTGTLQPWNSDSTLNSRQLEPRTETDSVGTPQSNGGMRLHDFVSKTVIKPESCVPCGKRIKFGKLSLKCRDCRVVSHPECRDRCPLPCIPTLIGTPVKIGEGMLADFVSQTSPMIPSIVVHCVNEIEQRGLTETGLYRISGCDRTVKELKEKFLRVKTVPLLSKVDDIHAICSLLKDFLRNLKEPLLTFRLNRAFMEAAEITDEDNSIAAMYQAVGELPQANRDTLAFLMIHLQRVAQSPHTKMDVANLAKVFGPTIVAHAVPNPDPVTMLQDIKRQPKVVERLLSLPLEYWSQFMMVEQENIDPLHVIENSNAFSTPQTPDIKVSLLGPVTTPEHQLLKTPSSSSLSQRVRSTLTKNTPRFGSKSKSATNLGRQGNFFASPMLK

cells [9] = type: functional, cell-based
cells [10] = type: functional, cell-based; remark: listed apart in the source

Chain of Disintegrin and metalloproteinase domain-containing protein 17 (P78536 whole entry, the tested form may be a part): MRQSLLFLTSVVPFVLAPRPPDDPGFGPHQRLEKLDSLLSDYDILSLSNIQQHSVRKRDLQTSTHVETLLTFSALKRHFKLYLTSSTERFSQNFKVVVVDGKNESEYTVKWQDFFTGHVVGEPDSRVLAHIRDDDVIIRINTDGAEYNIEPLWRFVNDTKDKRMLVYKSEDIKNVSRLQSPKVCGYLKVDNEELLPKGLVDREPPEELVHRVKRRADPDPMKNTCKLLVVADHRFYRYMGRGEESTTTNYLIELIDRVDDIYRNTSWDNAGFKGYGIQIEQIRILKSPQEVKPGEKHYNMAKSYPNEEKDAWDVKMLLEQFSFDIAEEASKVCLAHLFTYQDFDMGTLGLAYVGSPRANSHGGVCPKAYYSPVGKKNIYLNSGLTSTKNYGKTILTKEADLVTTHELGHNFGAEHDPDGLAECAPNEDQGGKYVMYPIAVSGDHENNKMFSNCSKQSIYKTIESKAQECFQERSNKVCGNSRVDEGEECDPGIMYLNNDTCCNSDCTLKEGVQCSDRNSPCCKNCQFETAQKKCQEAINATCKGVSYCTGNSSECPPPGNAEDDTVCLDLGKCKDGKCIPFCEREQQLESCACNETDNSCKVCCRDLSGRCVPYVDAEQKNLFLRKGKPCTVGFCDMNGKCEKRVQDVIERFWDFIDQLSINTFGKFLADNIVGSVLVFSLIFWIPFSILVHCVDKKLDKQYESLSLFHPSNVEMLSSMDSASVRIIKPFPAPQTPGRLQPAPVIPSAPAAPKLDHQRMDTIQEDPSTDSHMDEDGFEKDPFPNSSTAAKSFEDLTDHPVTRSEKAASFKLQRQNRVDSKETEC

With `C#CCN(C[C@@H]1[C@@H](OC(=O)NCc2ccc(OC)c(OC)c2)[C@@H](OC(=O)NCc2ccc(OC)c(OC)c2)Cn2c(=O)n(CCCCCC)c(=O)n21)S(=O)(=O)c1ccc(C)cc1` the IC50 [1] was > 69.5 µM (inactive) and the IC50 [2] was > 69.5 µM (inactive).
In the case of `N=C1/C(=C\c2ccc(-c3cccc(Cl)c3)o2)C(=O)N=C2SC=C(c3ccccc3)N12`, the IC50 [3] is reported as 27.8 µM (active), the IC50 [4] is reported as > 100 µM (inactive) and the IC50 (Prothrombin) is reported as 52.9 µM (active).
For `NC(=Nc1cccc2ccccc12)Nc1nc(O)c2c(n1)CCC2`, the EC50 [5] was > 120 µM (not active), the EC50 (H4) was > 120 µM (not active) and the EC50 [6] was > 120 µM (not active). The AC50 (Cytochrome P450 2D6) was 11.2 µM (inconclusive), the IC50 [3] was 24.3 µM (active) and the IC50 [4] was > 100 µM (inactive). The IC50 (Prothrombin) was > 100 µM (inactive).
In the case of `CCN(CC)c1ccc(/C=N/NC(=O)c2cccc(S(=O)(=O)Nc3ccccc3OC)c2)cc1`, the IC50 [3] is reported as 26.3 µM (active), the IC50 [4] is reported as > 100 µM (inactive) and the IC50 (Prothrombin) is reported as 33.2 µM (active).
In the case of `Oc1cccc(/C=N/N(Cc2ccccc2)c2ccccc2)c1`, the EC50 (Streptokinase A) is reported as > 150 µM (not active), the IC50 [1] is reported as > 69.5 µM (inactive) and the EC50 [7] is reported as 6.42 µM (active). The IC50 [2] was > 7.73 µM (active) and the EC50 (Streptococcus) was 7.85 µM (active).
In the case of `COc1cc(/C=C2/C(=O)NN(c3ccc(Cl)cc3)C2=O)cc(Br)c1O`, the IC50 [8] is reported as 103 µM (active), the IC50 [3] is reported as 14.5 µM (active) and the IC50 [4] is reported as 54.8 µM (active). The IC50 (Prothrombin) was 60.6 µM (active).
In the case of `CCOC(=O)c1ccc(N2CN(CCc3ccccc3)CN=C2S)cc1`, the EC50 (cells [9]) is reported as > 29.9 µM (inactive) and the IC50 (cells [10]) is reported as > 29.9 µM (inactive).
